{"source": "ChEMBL document CHEMBL5370540", "about": "“Discovery of pyrimidine-5-carboxamide derivatives as novel salt-inducible kinases (SIKs) inhibitors for inflammatory bowel disease (IBD) treatment” (Eur J Med Chem, 2023)", "key": {"[1]": {"molecular_target": "Serine/threonine-protein kinase SIK2 (Homo sapiens, UniProt Q9H0K1)", "assay": "Inhibition of SIK2 (unknown origin)"}, "[2]": {"assay": "Metabolic stability in human liver microsomes assessed as half life", "assay_type": "ADME, Microsome"}, "[3]": {"molecular_target": "Tyrosine-protein kinase ABL2 (Homo sapiens) (UniProt P42684)", "sequence (P42684 whole entry)": "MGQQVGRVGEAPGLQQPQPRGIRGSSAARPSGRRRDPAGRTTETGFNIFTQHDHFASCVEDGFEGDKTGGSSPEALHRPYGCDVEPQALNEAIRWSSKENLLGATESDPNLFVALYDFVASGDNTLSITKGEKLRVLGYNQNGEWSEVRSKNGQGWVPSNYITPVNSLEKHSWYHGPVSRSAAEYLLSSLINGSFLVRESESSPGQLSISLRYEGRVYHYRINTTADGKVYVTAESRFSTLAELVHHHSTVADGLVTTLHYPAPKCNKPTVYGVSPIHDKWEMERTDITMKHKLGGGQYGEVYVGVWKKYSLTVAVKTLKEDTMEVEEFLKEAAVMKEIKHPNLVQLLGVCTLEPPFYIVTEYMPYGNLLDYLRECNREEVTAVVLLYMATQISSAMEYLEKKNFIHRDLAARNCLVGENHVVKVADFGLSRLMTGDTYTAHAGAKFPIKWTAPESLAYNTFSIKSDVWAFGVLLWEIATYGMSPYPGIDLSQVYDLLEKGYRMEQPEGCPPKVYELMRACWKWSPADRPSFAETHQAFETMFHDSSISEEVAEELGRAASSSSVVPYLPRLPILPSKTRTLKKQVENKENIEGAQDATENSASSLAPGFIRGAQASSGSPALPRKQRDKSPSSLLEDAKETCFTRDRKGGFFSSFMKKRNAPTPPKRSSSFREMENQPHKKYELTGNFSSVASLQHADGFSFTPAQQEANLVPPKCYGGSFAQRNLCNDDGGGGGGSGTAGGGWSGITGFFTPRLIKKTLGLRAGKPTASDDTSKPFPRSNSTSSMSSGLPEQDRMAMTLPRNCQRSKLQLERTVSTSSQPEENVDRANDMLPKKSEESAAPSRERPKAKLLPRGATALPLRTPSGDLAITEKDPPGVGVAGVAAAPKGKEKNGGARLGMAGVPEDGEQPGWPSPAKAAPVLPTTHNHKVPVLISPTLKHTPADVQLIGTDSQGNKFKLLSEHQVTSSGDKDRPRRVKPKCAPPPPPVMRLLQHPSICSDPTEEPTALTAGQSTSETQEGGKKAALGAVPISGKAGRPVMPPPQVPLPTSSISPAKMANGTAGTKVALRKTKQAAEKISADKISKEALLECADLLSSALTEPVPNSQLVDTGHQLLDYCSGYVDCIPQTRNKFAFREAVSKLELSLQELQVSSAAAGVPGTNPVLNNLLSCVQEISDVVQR", "assay": "Inhibition of ARG (unknown origin) at 1 uM"}, "[4]": {"molecular_target": "Tyrosine-protein kinase FRK (Homo sapiens) (UniProt P42685)", "sequence (P42685 whole entry)": "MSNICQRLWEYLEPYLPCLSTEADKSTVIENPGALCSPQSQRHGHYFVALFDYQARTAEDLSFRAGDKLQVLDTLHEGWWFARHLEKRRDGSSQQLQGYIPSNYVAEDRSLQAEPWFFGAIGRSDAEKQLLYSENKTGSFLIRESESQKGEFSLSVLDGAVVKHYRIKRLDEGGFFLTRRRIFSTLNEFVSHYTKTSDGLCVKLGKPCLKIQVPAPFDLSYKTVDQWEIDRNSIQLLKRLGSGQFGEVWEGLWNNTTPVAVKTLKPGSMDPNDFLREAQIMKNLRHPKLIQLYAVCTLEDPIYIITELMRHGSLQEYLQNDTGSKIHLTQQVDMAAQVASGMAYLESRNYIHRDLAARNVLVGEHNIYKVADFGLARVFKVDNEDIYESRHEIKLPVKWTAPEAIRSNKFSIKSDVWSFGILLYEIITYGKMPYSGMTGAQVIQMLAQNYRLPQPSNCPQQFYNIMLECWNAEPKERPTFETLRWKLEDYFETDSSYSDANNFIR", "assay": "Inhibition of PTK5 (unknown origin) at 1 uM"}, "[5]": {"molecular_target": "Proto-oncogene tyrosine-protein kinase Src (Homo sapiens) (UniProt P12931)", "sequence (P12931 2-536 limits assumed)": "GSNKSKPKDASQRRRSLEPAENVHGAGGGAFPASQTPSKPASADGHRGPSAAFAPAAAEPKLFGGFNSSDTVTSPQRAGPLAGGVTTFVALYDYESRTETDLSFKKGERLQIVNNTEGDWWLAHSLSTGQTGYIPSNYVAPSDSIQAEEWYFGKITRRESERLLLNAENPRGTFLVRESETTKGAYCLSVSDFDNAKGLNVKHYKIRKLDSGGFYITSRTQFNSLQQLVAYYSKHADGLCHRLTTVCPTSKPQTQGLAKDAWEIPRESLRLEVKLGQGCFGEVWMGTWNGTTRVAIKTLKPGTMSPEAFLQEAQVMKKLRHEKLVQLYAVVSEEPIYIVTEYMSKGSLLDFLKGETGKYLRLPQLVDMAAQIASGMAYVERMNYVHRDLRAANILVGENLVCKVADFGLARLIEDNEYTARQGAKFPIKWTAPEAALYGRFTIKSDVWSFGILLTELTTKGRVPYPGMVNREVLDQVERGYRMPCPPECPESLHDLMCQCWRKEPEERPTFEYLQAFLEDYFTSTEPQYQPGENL", "assay": "Inhibition of cSRC (unknown origin) at 1 uM"}, "[6]": {"molecular_target": "Tyrosine-protein kinase Lck (Homo sapiens) (UniProt P06239)", "sequence (P06239 2-509 limits assumed)": "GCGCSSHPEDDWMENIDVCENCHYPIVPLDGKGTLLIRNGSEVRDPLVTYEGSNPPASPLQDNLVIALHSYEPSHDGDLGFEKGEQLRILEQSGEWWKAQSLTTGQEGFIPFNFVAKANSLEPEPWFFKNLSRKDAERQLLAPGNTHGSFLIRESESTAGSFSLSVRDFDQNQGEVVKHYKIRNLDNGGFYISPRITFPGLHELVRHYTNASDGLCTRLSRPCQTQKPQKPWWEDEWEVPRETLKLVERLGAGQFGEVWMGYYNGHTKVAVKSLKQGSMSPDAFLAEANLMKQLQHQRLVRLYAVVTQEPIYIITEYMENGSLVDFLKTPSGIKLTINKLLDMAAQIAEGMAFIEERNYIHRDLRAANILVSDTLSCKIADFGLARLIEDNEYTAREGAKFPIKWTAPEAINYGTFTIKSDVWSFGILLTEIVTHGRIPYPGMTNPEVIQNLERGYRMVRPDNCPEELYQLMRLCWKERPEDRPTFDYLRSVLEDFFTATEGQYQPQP", "assay": "Inhibition of LcK (unknown origin) at 1 uM"}, "[7]": {"molecular_target": "Tyrosine-protein kinase Lyn (Homo sapiens) (UniProt P07948)", "assay": "Inhibition of Lyn (unknown origin) at 1 uM"}, "[8]": {"molecular_target": "Proto-oncogene tyrosine-protein kinase Src (Homo sapiens) (UniProt P12931)", "assay": "Inhibition of SRC (1 to 530 residues)(unknown origin) at 1 uM"}, "[9]": {"molecular_target": "Tyrosine-protein kinase Yes (Homo sapiens) (UniProt P07947)", "assay": "Inhibition of Yes (unknown origin) at 1 uM"}, "[10]": {"molecular_target": "Tyrosine-protein kinase Fyn (Homo sapiens) (UniProt P06241)", "assay": "Inhibition of Fyn (unknown origin) at 1 uM"}, "[11]": {"molecular_target": "Tyrosine-protein kinase HCK (Homo sapiens) (UniProt P08631)", "sequence (P08631 2-526 limits assumed)": "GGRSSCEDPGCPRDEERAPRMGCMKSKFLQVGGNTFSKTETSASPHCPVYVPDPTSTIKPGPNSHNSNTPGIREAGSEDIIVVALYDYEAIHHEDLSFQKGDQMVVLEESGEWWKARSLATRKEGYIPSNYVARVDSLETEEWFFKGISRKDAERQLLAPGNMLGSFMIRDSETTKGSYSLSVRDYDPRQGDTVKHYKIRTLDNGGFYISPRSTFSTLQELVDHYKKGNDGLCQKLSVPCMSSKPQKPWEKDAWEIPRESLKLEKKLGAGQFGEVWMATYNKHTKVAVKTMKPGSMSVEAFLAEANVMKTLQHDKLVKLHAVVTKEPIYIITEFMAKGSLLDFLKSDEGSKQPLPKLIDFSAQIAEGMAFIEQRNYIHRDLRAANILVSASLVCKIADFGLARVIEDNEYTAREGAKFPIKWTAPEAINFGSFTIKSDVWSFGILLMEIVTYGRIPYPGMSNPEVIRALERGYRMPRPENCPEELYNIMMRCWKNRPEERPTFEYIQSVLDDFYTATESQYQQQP", "assay": "Inhibition of HcK (unknown origin) at 1 uM"}, "[12]": {"molecular_target": "Tyrosine-protein kinase Blk (Homo sapiens) (UniProt P51451)", "sequence (P51451 2-505 limits assumed)": "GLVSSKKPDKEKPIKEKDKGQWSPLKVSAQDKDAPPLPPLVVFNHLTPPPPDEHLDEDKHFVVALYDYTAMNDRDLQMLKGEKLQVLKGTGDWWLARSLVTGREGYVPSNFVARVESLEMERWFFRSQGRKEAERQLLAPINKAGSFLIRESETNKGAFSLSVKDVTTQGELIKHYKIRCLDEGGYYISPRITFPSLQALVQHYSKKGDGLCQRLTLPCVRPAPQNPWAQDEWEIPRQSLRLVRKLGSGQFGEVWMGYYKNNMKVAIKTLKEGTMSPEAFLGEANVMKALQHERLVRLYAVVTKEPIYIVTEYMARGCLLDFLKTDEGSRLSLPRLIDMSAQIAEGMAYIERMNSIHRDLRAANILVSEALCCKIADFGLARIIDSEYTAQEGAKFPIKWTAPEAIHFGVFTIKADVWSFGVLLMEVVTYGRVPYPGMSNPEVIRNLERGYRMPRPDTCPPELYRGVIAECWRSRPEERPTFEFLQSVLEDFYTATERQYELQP", "assay": "Inhibition of BlK (unknown origin) at 1 uM"}, "[13]": {"molecular_target": "Tyrosine-protein kinase BTK (Homo sapiens) (UniProt Q06187)", "assay": "Inhibition of BTK (unknown origin) at 1 uM"}, "[14]": {"molecular_target": "Tyrosine-protein kinase TXK (Homo sapiens) (UniProt P42681)", "assay": "Inhibition of Txk (unknown origin) at 1 uM"}, "[15]": {"assay": "Half life in Sprague-Dawley rat at 5 mg/kg, iv measured upto 24 hrs by LC/MS/MS analysis", "assay_type": "ADME, organism-based", "details": "in vivo"}, "[16]": {"assay": "Cmax in Sprague-Dawley rat at 5 mg/kg, iv measured upto 24 hrs by LC/MS/MS analysis", "assay_type": "ADME, organism-based", "set-up": "dose 5 mg/kg, time < 24 hrs, route iv", "details": "in vivo"}, "[17]": {"assay": "AUC (0 to t) in Sprague-Dawley rat at 10 mg/kg, po measured upto 24 hrs by LC/MS/MS analysis", "assay_type": "ADME, organism-based", "set-up": "dose 10 mg/kg, time < 24 hrs, route po", "details": "in vivo"}, "[18]": {"assay": "Half life in Sprague-Dawley rat at 10 mg/kg, po measured upto 24 hrs by LC/MS/MS analysis", "assay_type": "ADME, organism-based", "details": "in vivo"}, "[19]": {"assay": "Tmax in Sprague-Dawley rat at 10 mg/kg, po measured upto 24 hrs by LC/MS/MS analysis", "assay_type": "ADME, organism-based", "details": "in vivo"}, "[20]": {"assay": "Cmax in Sprague-Dawley rat at 10 mg/kg, po measured upto 24 hrs by LC/MS/MS analysis", "assay_type": "ADME, organism-based", "set-up": "dose 10 mg/kg, time < 24 hrs, route po", "details": "in vivo"}, "[21]": {"assay": "Oral bioavailability in Sprague-Dawley rat at 10 mg/kg measured upto 24 hrs by LC/MS/MS analysis", "assay_type": "ADME, organism-based", "details": "in vivo"}, "[22]": {"assay": "Protein binding in human plasma at 10 uM measured for 8 hrs by dialysis method", "assay_type": "ADME, cell-free", "details": "read-out: PPB (converted)"}, "BMDM [23]": {"tested_on": "BMDM", "assay": "Cytotoxicity against C57BL/6J mouse BMDM cells assessed as cell viability upto 500 nM preincubated for 1 hr followed by LPS stimulation measured after 2 to 4 hrs by CCK8 assay", "assay_type": "toxicity, cell-based", "details": "0.5 µM, time 3-5 hrs"}, "BMDM [24]": {"tested_on": "BMDM", "assay": "Anti-inflammatory activity against C57BL/6J mouse BMDM cells assessed as increase in IL-10 level at 500 nM preincubated for 1 hr followed by LPS stimulation measured after 2 to 8 hrs by ELISA method", "assay_type": "functional, cell-based", "details": "time 3-9 hrs"}, "BMDM [25]": {"tested_on": "BMDM", "assay": "Anti-inflammatory activity against C57BL/6J mouse BMDM cells assessed as decrease in IL-12 level upto 500 nM preincubated for 1 hr followed by LPS stimulation measured after 8 hrs by ELISA method", "assay_type": "functional, cell-based", "details": "time 9.0 hrs"}, "[26]": {"molecular_target": "Serine/threonine-protein kinase SIK2 (Mus musculus) (UniProt Q8CFH6)", "sequence (Q8CFH6 whole entry)": "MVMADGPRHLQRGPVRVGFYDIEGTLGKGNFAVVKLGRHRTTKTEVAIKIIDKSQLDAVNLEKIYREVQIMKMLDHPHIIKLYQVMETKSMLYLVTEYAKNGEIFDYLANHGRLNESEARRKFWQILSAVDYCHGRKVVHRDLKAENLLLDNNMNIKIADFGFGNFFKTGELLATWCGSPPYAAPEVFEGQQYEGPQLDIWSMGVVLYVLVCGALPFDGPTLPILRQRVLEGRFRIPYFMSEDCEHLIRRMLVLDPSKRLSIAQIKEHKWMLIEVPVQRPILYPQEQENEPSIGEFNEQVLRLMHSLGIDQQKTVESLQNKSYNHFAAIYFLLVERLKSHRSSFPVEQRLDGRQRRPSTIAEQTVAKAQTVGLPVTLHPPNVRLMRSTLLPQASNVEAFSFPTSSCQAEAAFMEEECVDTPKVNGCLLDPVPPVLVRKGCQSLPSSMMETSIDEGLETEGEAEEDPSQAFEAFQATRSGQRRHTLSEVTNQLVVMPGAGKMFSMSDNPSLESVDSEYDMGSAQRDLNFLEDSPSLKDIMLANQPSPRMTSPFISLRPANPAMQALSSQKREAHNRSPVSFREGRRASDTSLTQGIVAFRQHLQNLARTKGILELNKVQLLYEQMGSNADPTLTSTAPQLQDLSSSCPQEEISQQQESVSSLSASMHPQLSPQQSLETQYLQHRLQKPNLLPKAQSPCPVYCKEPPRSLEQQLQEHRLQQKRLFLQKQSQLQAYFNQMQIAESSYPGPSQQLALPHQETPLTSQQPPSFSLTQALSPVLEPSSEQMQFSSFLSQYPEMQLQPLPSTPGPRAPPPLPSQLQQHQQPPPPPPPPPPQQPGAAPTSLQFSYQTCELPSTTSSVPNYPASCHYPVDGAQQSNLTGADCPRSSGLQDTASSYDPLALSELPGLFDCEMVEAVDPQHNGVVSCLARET", "assay": "Inhibition of SIK2 in C57BL/6J mouse BMDM cells assessed as increase in IL-10 mRNA level at 500 nM preincubated for 1 hr followed by LPS stimulation measured for 1 hr by qPCR analysis", "assay_type": "cell-based", "details": "time 2.0 hrs"}, "[27]": {"molecular_target": "Serine/threonine-protein kinase SIK2 (Mus musculus) (UniProt Q8CFH6)", "assay": "Inhibition of SIK2 in C57BL/6J mouse BMDM cells assessed as increase in c-FOS mRNA level at 500 nM preincubated for 1 hr followed by LPS stimulation measured for 1 hr by qPCR analysis", "assay_type": "cell-based", "details": "time 2.0 hrs"}, "[28]": {"molecular_target": "Serine/threonine-protein kinase SIK2 (Mus musculus) (UniProt Q8CFH6)", "assay": "Inhibition of SIK2 in C57BL/6J mouse BMDM cells assessed as increase in Nurr77 mRNA level at 500 nM preincubated for 1 hr followed by LPS stimulation measured for 1 hr by qPCR analysis", "assay_type": "cell-based", "details": "time 2.0 hrs"}, "[29]": {"molecular_target": "Serine/threonine-protein kinase SIK2 (Mus musculus) (UniProt Q8CFH6)", "assay": "Inhibition of SIK2 in C57BL/6J mouse BMDM cells assessed as increase in IL-12 mRNA level at 500 nM preincubated for 1 hr followed by LPS stimulation measured after 8 hrs by qPCR analysis", "assay_type": "cell-based", "details": "time 9.0 hrs"}, "BMDM [30]": {"tested_on": "BMDM", "assay": "Effect on TLR-stimulated CREB phosphorylation at Ser133 residue in C57BL/6J mouse BMDM cells at 500 nM preincubated for 1 hr followed by LPS stimulation measured upto 60 mins by Western blot analysis", "assay_type": "functional, cell-based", "details": "time 2.0 hrs"}, "BMDM [31]": {"tested_on": "BMDM", "assay": "Upregulation of CREB-dependent gene transcription in C57BL/6J mouse BMDM cells assessed as CRTC3 translocation to nucleus at 500 nM preincubated for 1 hr followed by LPS stimulation measured after 1 hr by immunofluorescence analysis", "assay_type": "functional, cell-based", "details": "time 2.0 hrs"}, "[32]": {"molecular_target": "Serine/threonine-protein kinase SIK2 (Mus musculus) (UniProt Q8CFH6)", "assay": "Inhibition of SIK2 in C57BL/6J mouse BMDM cells assessed as increase in SPHK1 mRNA level at 500 nM preincubated for 1 hr followed by LPS stimulation measured upto 8 hrs by qPCR analysis", "assay_type": "cell-based", "details": "time <= 9.0 hrs"}, "[33]": {"molecular_target": "Serine/threonine-protein kinase SIK2 (Mus musculus) (UniProt Q8CFH6)", "assay": "Inhibition of SIK2 in C57BL/6J mouse BMDM cells assessed as increase in arginase 1 mRNA level at 500 nM preincubated for 1 hr followed by LPS stimulation measured upto 8 hrs by qPCR analysis", "assay_type": "cell-based", "details": "time <= 9.0 hrs"}, "[34]": {"assay": "Toxicity in DSS-induced colitis C57BL/6J mouse model at 30 mg/kg, ip", "assay_type": "organism-based", "details": "in vivo"}, "Mus musculus [35]": {"tested_on": "Mus musculus", "assay": "Antiinflammatory activity in DSS-induced colitis C57BL/6J mouse model assessed as decrease in thickening of inherent base layer at 7.5 to 15 mg/kg, ip measured after 12 days by H&E staining based analysis", "assay_type": "functional, organism-based", "details": "dose 7.5-15 mg/kg, time 12.0 day"}, "Mus musculus [36]": {"tested_on": "Mus musculus", "assay": "Antiinflammatory activity in DSS-induced colitis C57BL/6J mouse model assessed as increase in body weight at 50 to 100 mg/kg, po", "assay_type": "functional, organism-based", "details": "dose 50-100 mg/kg"}, "Mus musculus [37]": {"tested_on": "Mus musculus", "assay": "Antiinflammatory activity in DSS-induced colitis C57BL/6J mouse model assessed as decrease in disease activity index at 50 to 100 mg/kg, po", "assay_type": "functional, organism-based", "details": "dose 50-100 mg/kg"}, "Mus musculus [38]": {"tested_on": "Mus musculus", "assay": "Antiinflammatory activity in DSS-induced colitis C57BL/6J mouse model assessed as decrease in thickening of inherent base layer at 50 to 100 mg/kg, po measured after 12 days by H&E staining based analysis", "assay_type": "functional, organism-based", "details": "dose 50-100 mg/kg, time 12.0 day"}}, "note": "pIC50: −log10 of the molar value. Calls of active or inactive are those of the source. The calls are words filed in the database; no cut-off is given here.", "data": [{"compound": "Cc1cccc(F)c1NC(=O)c1cnc(Nc2ccc(N3CCN(C)CC3)c(F)c2)nc1NC1CCC1", "values": [{"measurement": "pIC50", "setting": "[1]", "result": 8.10}, {"measurement": "half-life", "setting": "[2]", "result": "> 2", "unit": "h"}, {"measurement": "inhibition", "setting": "[3]", "result": "Active"}, {"measurement": "inhibition", "setting": "[4]", "result": "Active"}, {"measurement": "inhibition", "setting": "[5]", "result": "Active"}, {"measurement": "inhibition", "setting": "[6]", "result": "Active"}, {"measurement": "inhibition", "setting": "[7]", "result": "Active"}, {"measurement": "inhibition", "setting": "[8]", "result": "Active"}, {"measurement": "inhibition", "setting": "[9]", "result": "Active"}, {"measurement": "inhibition", "setting": "[10]", "result": "Active"}, {"measurement": "inhibition", "setting": "[11]", "result": "Active"}, {"measurement": "inhibition", "setting": "[12]", "result": "Active"}, {"measurement": "inhibition", "setting": "[13]", "result": "Active"}, {"measurement": "inhibition", "setting": "[14]", "result": "Active"}, {"measurement": "half-life", "setting": "[15]", "result": 11.5, "unit": "h"}, {"measurement": "Cmax", "setting": "[16]", "result": 12000, "unit": "ng/mL"}, {"measurement": "AUC(0-t) at 24 h", "setting": "[17]", "result": 9340, "unit": "ng·h/mL"}, {"measurement": "half-life", "setting": "[18]", "result": 17.1, "unit": "h"}, {"measurement": "Tmax", "setting": "[19]", "result": 8, "unit": "h"}, {"measurement": "Cmax", "setting": "[20]", "result": 572, "unit": "ng/mL"}, {"measurement": "bioavailability", "setting": "[21]", "result": 23, "unit": "%"}, {"measurement": "fraction unbound at 8 h, 10 µM", "setting": "[22]", "result": 0.206}, {"measurement": "Activity", "setting": "BMDM [23]", "result": "Non-Toxic"}, {"measurement": "Activity", "setting": "BMDM [24]", "result": "Active"}, {"measurement": "Activity", "setting": "BMDM [25]", "result": "Active"}, {"measurement": "inhibition", "setting": "[26]", "result": "Active"}, {"measurement": "inhibition", "setting": "[27]", "result": "Active"}, {"measurement": "inhibition", "setting": "[28]", "result": "Active"}, {"measurement": "inhibition", "setting": "[29]", "result": "inactive"}, {"measurement": "Activity", "setting": "BMDM [30]", "result": "inactive"}, {"measurement": "Activity", "setting": "BMDM [31]", "result": "Active"}, {"measurement": "inhibition", "setting": "[32]", "result": "Active"}, {"measurement": "inhibition", "setting": "[33]", "result": "Active"}, {"measurement": "Activity", "setting": "[34]", "result": "Toxic"}, {"measurement": "Activity", "setting": "Mus musculus [35]", "result": "Active"}, {"measurement": "Activity", "setting": "Mus musculus [36]", "result": "Active"}, {"measurement": "Activity", "setting": "Mus musculus [37]", "result": "Active"}, {"measurement": "Activity", "setting": "Mus musculus [38]", "result": "Active"}]}]}
